pIC50: −log10 of the molar value. Counter-ions that a name gives are not always drawn.
Biological target: T1, full length SGK1 (Homo sapiens, UniProt O00141)
T1 construct: 125 μM full length SGK1 (Life Technologies Part #PR7358A); purchased Life Technologies PR7358A
T1 sequence (O00141 1-431): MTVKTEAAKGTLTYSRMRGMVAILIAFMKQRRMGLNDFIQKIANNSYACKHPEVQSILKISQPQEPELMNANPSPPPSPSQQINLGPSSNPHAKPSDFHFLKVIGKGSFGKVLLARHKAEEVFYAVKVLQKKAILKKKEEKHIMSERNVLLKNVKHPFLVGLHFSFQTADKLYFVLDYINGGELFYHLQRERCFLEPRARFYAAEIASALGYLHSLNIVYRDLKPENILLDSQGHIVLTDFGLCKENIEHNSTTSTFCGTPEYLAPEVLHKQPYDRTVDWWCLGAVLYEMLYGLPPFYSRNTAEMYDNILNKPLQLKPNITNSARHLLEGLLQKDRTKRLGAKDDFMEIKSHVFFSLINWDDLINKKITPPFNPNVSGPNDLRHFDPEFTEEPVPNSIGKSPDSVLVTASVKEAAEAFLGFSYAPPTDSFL
Assay: SGK1 inhibition Assay A (Caliper LabChip electrophoretic separation of fluorescent peptide substrate and phosphorylated product)
Format: biochemical
Conditions: Assay A; 20 μM ATP, 40 min incubation; read-out: SGK1 IC50

Compound | pIC50
CC(C)(C)OC(=O)N[C@@H]1CCCN(c2cc(-c3ccc(S(C)(=O)=O)cc3)n3ncnc(N)c23)C1 [Example 11, tert-butyl (R)-(1-(4-amino-7-(4-(methylsulfonyl)phenyl)pyrrolo[2,1-f][1,2,4]triazin-5-yl)piperidin-3-yl)carbamate] | 5.76
CS(=O)(=O)c1ccc(-c2cc(N3CCC[C@@H](NC(=O)c4ccccc4)C3)c3c(N)ncnn23)cc1 [Example 13, (R)—N-(1-(4-amino-7-(4-(methylsulfonyl)phenyl)pyrrolo[2,1-f][1,2,4]triazin-5-yl)piperidin-3-yl)benzamide] | 7.55
CS(=O)(=O)c1ccc(-c2cc(N3CCC[C@@H](NC(=O)Cc4ccccc4)C3)c3c(N)ncnn23)cc1 [Example 14, (R)-N-(1-(4-amino-7-(4-(methylsulfonyl)phenyl)pyrrolo[2,1-f][1,2,4]triazin-5-yl)piperidin-3-yl)-2-phenylacetamide, TFA] | 6.03
CS(=O)(=O)c1ccc(-c2cc(N3CCC[C@@H](NC(=O)CCc4ccccc4)C3)c3c(N)ncnn23)cc1 [Example 15, (R)-N-(1-(4-amino-7-(4-(methylsulfonyl)phenyl)pyrrolo[2,1-f][1,2,4]triazin-5-yl)piperidin-3-yl)-3-phenylpropanamide, TFA] | 6.30
CS(=O)(=O)c1ccc(-c2cc(N3CCC[C@@H](NC(=O)C4CCCCC4)C3)c3c(N)ncnn23)cc1 [Example 16, (R)-N-(1-(4-amino-7-(4-(methylsulfonyl)phenyl)pyrrolo[2,1-f][1,2,4]triazin-5-yl)piperidin-3-yl) cyclohexanecarboxamide] | 6.49
CS(=O)(=O)c1ccc(-c2cc(N3CCC[C@@H](NC(=O)C4CCOCC4)C3)c3c(N)ncnn23)cc1 [Example 17, (R)-N-(1-(4-amino-7-(4-(methylsulfonyl)phenyl)pyrrolo[2,1-f][1,2,4]triazin-5-yl)piperidin-3-yl)tetrahydro-2H-pyran-4-carboxamide, TFA] | 5.89
CS(=O)(=O)c1ccc(-c2cc(N3CCC[C@@H](NC(=O)c4ccccc4Cl)C3)c3c(N)ncnn23)cc1 [Example 19, (R)-N-(1-(4-amino-7-(4-(methylsulfonyl)phenyl)pyrrolo[2,1-f][1,2,4]triazin-5-yl)piperidin-3-yl)-2-chlorobenzamide] | 6.56
CS(=O)(=O)c1ccc(-c2cc(N3CCC[C@@H](NC(=O)c4ccccc4F)C3)c3c(N)ncnn23)cc1 [Example 20, (R)-N-(1-(4-amino-7-(4-(methylsulfonyl)phenyl)pyrrolo[2,1-f][1,2,4]triazin-5-yl)piperidin-3-yl)-2-fluorobenzamide] | 7.33
CS(=O)(=O)c1ccc(-c2cc(N3CCC[C@@H](NC(=O)c4cccc(Cl)c4)C3)c3c(N)ncnn23)cc1 [Example 21, (R)-N-(1-(4-amino-7-(4-(methylsulfonyl)phenyl)pyrrolo[2,1-f][1,2,4]triazin-5-yl)piperidin-3-yl)-3-chlorobenzamide] | 7.89
COc1cccc(C(=O)N[C@@H]2CCCN(c3cc(-c4ccc(S(C)(=O)=O)cc4)n4ncnc(N)c34)C2)c1 [Example 22, (R)-N-(1-(4-amino-7-(4-(methylsulfonyl)phenyl)pyrrolo[2,1-f][1,2,4]triazin-5-yl)piperidin-3-yl)-3-methoxybenzamide] | 7.92
Cc1cccc(C(=O)N[C@@H]2CCCN(c3cc(-c4ccc(S(C)(=O)=O)cc4)n4ncnc(N)c34)C2)c1 [Example 23, (R)-N-(1-(4-amino-7-(4-(methylsulfonyl)phenyl)pyrrolo[2,1-f][1,2,4]triazin-5-yl)piperidin-3-yl)-3-methylbenzamide] | 7.96
CS(=O)(=O)c1ccc(-c2cc(N3CCC[C@@H](NC(=O)c4cccc(C(F)(F)F)c4)C3)c3c(N)ncnn23)cc1 [Example 24, (R)-N-(1-(4-amino-7-(4-(methylsulfonyl)phenyl)pyrrolo[2,1-f][1,2,4]triazin-5-yl)piperidin-3-yl)-3-(trifluoromethyl) benzamide] | 7.39
CS(=O)(=O)c1ccc(-c2cc(N3CCC[C@@H](NC(=O)c4ccc(F)cc4)C3)c3c(N)ncnn23)cc1 [Example 25, (R)-N-(1-(4-amino-7-(4-(methylsulfonyl)phenyl)pyrrolo[2,1-f][1,2,4]triazin-5-yl)piperidin-3-yl)-4-fluorobenzamide] | 7.66
CS(=O)(=O)c1ccc(-c2cc(N3CCC[C@@H](NC(=O)c4ccc(F)c(F)c4)C3)c3c(N)ncnn23)cc1 [Example 26, (R)-N-(1-(4-amino-7-(4-(methylsulfonyl)phenyl)pyrrolo [2,1-f][1,2,4]triazin-5-yl)piperidin-3-yl)-3,4-difluorobenzamide] | 7.72
CS(=O)(=O)c1ccc(-c2cc(N3CCC[C@@H](NC(=O)c4ccncc4)C3)c3c(N)ncnn23)cc1 [Example 27, (R)-N-(1-(4-amino-7-(4-(methylsulfonyl)phenyl)pyrrolo[2,1-f][1,2,4]triazin-5-yl)piperidin-3-yl)isonicotinamide] | 7.92
Cn1cc(C(=O)N[C@@H]2CCCN(c3cc(-c4ccc(S(C)(=O)=O)cc4)n4ncnc(N)c34)C2)cn1 [Example 28, (R)-N-(1-(4-amino-7-(4-(methylsulfonyl)phenyl)pyrrolo[2,1-f][1,2,4]triazin-5-yl)piperidin-3-yl)-1-methyl-1H-pyrazole-4-carboxamide] | 7.49
CS(=O)(=O)c1ccc(-c2cc(N3CCC[C@@H](NC(=O)C4CC5(CCC5)C4)C3)c3c(N)ncnn23)cc1 [Example 29, (R)-N-(1-(4-amino-7-(4-(methylsulfonyl)phenyl)pyrrolo [2,1-f][1,2,4]triazin-5-yl)piperidin-3-yl)spiro[3.3]heptane-2-carboxamide] | 6.74
CS(=O)(=O)c1ccc(-c2cc(N3CCC[C@@H](NC(=O)c4ccnnc4)C3)c3c(N)ncnn23)cc1 [Example 30, (R)-N-(1-(4-amino-7-(4-(methylsulfonyl)phenyl)pyrrolo[2,1-f][1,2,4]triazin-5-yl)piperidin-3-yl)pyridazine-4-carboxamide] | 7.19
CS(=O)(=O)c1ccc(-c2cc(N3CCC[C@@H](NC(=O)c4ccncn4)C3)c3c(N)ncnn23)cc1 [Example 31, (R)-N-(1-(4-amino-7-(4-(methylsulfonyl)phenyl)pyrrolo[2,1-f][1,2,4]triazin-5-yl)piperidin-3-yl)pyrimidine-4-carboxamide] | 6.95
CS(=O)(=O)c1ccc(-c2cc(N3CCC[C@@H](NC(=O)c4ccnc(F)c4)C3)c3c(N)ncnn23)cc1 [Example 32, (R)-N-(1-(4-amino-7-(4-(methylsulfonyl)phenyl)pyrrolo[2,1-f][1,2,4]triazin-5-yl)piperidin-3-yl)-2-fluoroisonicotinamide, TFA] | 7.96
Cc1cc(C(=O)N[C@@H]2CCCN(c3cc(-c4ccc(S(C)(=O)=O)cc4)n4ncnc(N)c34)C2)ccn1 [Example 33, (R)-N-(1-(4-amino-7-(4-(methylsulfonyl)phenyl)pyrrolo[2,1-f][1,2,4]triazin-5-yl)piperidin-3-yl)-2-methylisonicotinamide] | 8.05
C#Cc1cccc(C(=O)N[C@@H]2CCCN(c3cc(-c4ccc(S(C)(=O)=O)cc4)n4ncnc(N)c34)C2)c1 [Example 34, (R)-N-(1-(4-amino-7-(4-(methylsulfonyl)phenyl)pyrrolo[2,1-f][1,2,4]triazin-5-yl)piperidin-3-yl)-3-ethynylbenzamide] | 7.62
Cc1cc(C(=O)N[C@@H]2CCCN(c3cc(-c4ccc(S(C)(=O)=O)cc4)n4ncnc(N)c34)C2)cc(C)n1 [Example 35, (R)-N-(1-(4-amino-7-(4-(methylsulfonyl)phenyl)pyrrolo[2,1-f][1,2,4]triazin-5-yl)piperidin-3-yl)-2,6-dimethylisonicotinamide] | 7.68
CS(=O)(=O)c1ccc(-c2cc(N3CCC[C@@H](NC(=O)c4cn5ccccc5n4)C3)c3c(N)ncnn23)cc1 [Example 36] | 7.39
CS(=O)(=O)c1ccc(-c2cc(N3CCC[C@@H](NC(=O)c4cnc[nH]4)C3)c3c(N)ncnn23)cc1 [Example 37, (R)-N-(1-(4-amino-7-(4-(methylsulfonyl)phenyl)pyrrolo[2,1-f][1,2,4]triazin-5-yl)piperidin-3-yl)-1H-imidazole-5-carboxamide, TFA] | 6.87
CS(=O)(=O)c1ccc(-c2cc(N3CCC[C@@H](NC(=O)c4ccn[nH]4)C3)c3c(N)ncnn23)cc1 [Example 38, (R)-N-(1-(4-amino-7-(4-(methylsulfonyl)phenyl)pyrrolo[2,1-f][1,2,4]triazin-5-yl)piperidin-3-yl)-1H-pyrazole-5-carboxamide] | 7.66
CS(=O)(=O)c1ccc(-c2cc(N3CCC[C@@H](NC(=O)c4ccnc(N)c4)C3)c3c(N)ncnn23)cc1 [Example 39, (R)-2-amino-N-(1-(4-amino-7-(4-(methylsulfonyl)phenyl)pyrrolo [2,1-f][1,2,4]triazin-5-yl)piperidin-3-yl)isonicotinamide] | 7.32
Cc1cc(C(=O)N[C@@H]2CCCN(c3cc(-c4ccc(S(C)(=O)=O)cc4)n4ncnc(N)c34)C2)cc(=O)[nH]1 [Example 40, (R)-N-(1-(4-amino-7-(4-(methylsulfonyl)phenyl)pyrrolo[2,1-f][1,2,4]triazin-5-yl)piperidin-3-yl)-6-methyl-2-oxo-1,2-d1Hydropyridine-4-carboxamide, TFA] | 6.94
CS(=O)(=O)c1ccc(-c2cc(N3CCC[C@@H](NC(=O)c4ccns4)C3)c3c(N)ncnn23)cc1 [Example 41, (R)-N-(1-(4-amino-7-(4-(methylsulfonyl)phenyl)pyrrolo[2,1-f][1,2,4]triazin-5-yl)piperidin-3-yl)isothiazole-5-carboxamide, TFA] | 8.30

From patent US20260250290A1 (BRISTOL-MYERS SQUIBB COMPANY, priority 2023, published 2026)
